Measured values published in ChEMBL document CHEMBL1156118, “Evaluation of substituted 6-arylquinazolin-4-amines as potent and selective inhibitors of cdc2-like kinases (Clk)” (Bioorg Med Chem Lett, 2009).

Tests used:
[1] = biological target: T1, Dual specificity protein kinase CLK4 (Homo sapiens, UniProt Q9HAZ1); assay: Inhibition of Clk4
[2] = biological target: Dual specificity protein kinase CLK2 (Homo sapiens, UniProt P49760); assay: Binding affinity to Clk2 assessed as dissociation constant
Dual specificity protein kinase CLK2, sequence (P49760 whole entry): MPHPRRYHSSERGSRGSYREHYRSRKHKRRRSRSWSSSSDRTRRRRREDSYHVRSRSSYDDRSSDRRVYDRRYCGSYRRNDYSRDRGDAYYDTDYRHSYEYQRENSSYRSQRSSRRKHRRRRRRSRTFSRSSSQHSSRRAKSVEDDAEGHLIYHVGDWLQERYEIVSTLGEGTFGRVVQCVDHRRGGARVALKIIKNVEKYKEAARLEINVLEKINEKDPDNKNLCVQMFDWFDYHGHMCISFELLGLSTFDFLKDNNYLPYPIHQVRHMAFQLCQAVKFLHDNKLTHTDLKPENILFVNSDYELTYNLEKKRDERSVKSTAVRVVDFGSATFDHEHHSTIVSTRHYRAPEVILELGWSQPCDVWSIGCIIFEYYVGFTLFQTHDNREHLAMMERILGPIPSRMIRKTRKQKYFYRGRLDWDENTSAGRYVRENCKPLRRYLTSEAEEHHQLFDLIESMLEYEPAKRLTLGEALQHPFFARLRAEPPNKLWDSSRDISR

[3] = biological target: Epidermal growth factor receptor (Homo sapiens, UniProt P00533); assay: Binding affinity to EGFR assessed as dissociation constant
Epidermal growth factor receptor, sequence (P00533 whole entry): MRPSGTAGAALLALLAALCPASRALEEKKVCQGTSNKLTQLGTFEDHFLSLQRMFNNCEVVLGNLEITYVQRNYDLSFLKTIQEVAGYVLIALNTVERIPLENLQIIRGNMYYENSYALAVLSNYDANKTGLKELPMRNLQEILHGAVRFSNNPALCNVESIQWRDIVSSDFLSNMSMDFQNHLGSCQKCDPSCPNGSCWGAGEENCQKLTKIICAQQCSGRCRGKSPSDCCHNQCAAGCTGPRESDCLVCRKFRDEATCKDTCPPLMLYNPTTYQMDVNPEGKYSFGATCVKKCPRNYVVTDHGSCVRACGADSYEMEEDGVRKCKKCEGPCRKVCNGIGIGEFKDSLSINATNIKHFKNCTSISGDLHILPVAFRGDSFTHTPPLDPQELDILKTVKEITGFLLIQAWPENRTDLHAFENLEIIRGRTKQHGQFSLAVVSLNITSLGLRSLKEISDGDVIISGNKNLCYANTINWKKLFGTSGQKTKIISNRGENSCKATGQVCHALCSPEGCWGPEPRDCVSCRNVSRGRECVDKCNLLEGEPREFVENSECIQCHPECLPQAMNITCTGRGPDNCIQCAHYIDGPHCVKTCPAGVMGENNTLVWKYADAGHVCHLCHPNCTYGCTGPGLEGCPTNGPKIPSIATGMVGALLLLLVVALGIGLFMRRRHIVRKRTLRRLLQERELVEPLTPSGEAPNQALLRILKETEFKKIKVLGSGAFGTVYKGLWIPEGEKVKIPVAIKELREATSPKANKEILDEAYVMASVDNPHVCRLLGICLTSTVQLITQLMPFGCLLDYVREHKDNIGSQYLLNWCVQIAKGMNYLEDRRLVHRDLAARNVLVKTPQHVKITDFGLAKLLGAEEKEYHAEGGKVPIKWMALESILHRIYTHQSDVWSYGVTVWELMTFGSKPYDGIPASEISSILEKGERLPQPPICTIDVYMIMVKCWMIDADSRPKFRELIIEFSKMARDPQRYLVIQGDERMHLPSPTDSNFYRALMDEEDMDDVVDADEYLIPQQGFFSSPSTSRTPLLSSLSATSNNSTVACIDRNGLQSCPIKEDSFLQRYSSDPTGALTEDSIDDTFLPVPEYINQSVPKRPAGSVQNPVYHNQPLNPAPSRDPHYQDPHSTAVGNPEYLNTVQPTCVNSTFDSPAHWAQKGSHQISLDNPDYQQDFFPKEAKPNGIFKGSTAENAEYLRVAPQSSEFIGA

[4] = biological target: Dual specificity tyrosine-phosphorylation-regulated kinase 1B (Homo sapiens, UniProt Q9Y463); assay: Binding affinity to Dyrk1B assessed as dissociation constant
Dual specificity tyrosine-phosphorylation-regulated kinase 1B, sequence (Q9Y463 whole entry): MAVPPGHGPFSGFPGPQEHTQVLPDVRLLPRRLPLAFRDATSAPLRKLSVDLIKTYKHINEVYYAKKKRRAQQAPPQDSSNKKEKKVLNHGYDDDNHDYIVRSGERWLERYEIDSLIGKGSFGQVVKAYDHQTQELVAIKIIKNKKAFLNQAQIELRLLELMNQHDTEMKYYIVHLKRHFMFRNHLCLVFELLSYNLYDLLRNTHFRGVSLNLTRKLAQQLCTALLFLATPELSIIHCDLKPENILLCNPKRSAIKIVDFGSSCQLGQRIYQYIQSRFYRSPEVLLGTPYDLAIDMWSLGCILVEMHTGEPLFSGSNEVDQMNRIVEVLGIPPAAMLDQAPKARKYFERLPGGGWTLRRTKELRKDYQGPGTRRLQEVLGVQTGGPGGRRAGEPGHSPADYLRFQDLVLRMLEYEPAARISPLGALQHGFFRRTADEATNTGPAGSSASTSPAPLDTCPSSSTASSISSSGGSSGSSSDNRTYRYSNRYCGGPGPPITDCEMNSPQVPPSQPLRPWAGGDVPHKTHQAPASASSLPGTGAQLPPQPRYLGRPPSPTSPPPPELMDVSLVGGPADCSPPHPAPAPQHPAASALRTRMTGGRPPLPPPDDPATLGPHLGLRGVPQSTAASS

[5] = biological target: Dual specificity protein kinase CLK3 (Homo sapiens, UniProt P49761); assay: Binding affinity to Clk3 assessed as dissociation constant
Dual specificity protein kinase CLK3, sequence (P49761 whole entry): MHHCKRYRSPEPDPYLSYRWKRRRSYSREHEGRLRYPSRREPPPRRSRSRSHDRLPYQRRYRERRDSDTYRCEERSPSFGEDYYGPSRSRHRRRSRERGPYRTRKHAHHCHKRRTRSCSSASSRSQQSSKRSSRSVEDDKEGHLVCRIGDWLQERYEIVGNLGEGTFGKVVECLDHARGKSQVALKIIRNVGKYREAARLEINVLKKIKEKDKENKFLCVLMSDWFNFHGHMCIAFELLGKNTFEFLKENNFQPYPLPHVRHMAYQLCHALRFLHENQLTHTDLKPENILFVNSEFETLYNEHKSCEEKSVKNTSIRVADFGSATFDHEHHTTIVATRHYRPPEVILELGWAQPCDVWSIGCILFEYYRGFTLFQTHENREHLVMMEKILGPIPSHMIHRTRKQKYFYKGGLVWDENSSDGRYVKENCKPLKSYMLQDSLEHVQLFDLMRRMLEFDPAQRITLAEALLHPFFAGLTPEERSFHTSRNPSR

[6] = biological target: Dual specificity tyrosine-phosphorylation-regulated kinase 1A (Homo sapiens, UniProt Q13627); assay: Binding affinity to Dyrk1A assessed as dissociation constant
[7] = biological target: T1, Dual specificity protein kinase CLK4; assay: Binding affinity to Clk4 assessed as dissociation constant
[8] = biological target: Dual specificity protein kinase CLK1 (Homo sapiens, UniProt P49759); assay: Binding affinity to Clk1 assessed as dissociation constant
Dual specificity protein kinase CLK1, sequence (P49759 whole entry): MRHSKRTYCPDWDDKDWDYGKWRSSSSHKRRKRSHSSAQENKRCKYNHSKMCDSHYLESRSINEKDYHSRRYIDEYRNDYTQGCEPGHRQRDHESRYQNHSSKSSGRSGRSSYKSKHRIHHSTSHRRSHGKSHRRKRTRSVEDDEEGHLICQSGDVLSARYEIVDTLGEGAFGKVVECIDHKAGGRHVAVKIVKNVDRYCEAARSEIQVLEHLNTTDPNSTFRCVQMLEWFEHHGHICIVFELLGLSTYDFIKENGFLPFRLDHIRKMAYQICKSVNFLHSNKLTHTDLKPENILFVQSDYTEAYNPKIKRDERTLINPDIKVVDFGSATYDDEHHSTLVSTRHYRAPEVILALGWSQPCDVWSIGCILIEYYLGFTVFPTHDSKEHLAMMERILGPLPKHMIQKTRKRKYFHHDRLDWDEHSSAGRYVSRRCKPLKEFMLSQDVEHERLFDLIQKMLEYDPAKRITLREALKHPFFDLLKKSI

T1 sequence (Q9HAZ1 whole entry): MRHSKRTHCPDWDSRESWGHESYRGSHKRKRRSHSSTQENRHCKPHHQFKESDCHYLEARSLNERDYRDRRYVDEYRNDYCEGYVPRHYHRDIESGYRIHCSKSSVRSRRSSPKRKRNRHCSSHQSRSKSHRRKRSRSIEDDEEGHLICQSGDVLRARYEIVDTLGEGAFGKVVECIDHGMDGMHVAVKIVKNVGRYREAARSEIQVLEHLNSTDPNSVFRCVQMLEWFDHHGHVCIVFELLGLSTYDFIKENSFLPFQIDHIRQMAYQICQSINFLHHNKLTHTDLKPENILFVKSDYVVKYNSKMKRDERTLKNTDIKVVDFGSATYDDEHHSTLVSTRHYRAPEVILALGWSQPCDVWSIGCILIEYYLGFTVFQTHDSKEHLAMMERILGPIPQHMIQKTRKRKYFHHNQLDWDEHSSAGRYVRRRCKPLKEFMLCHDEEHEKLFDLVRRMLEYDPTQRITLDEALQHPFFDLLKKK

Row | SMILES | IC50 [1] [nM] | further results
1 | COc1cccc(-c2ccc3ncnc(NCc4cccs4)c3c2)c1 | 891 | –
2 | Cc1cccc(CNc2ncnc3ccc(-c4ccc5c(c4)OCO5)cc23)c1 | 126 | –
3 | Cc1csc(CNc2ncnc3ccc(-c4ccc5c(c4)OCO5)cc23)c1 | 178 | –
4 | c1coc(-c2ccc3ncnc(NCc4cccs4)c3c2)c1 | 250 | –
5 | Cc1cccc(CNc2ncnc3ccc(-c4ccc5c(c4)OCCO5)cc23)c1 | 631 | –
6 | Cc1noc(C)c1-c1ccc2ncnc(NCc3cccc(F)c3)c2c1 | 178 | –
7 | COc1cccc(-c2ccc3ncnc(NCc4cccc(C)c4)c3c2)c1 | 1120 | –
8 | COc1cccc(-c2ccc3ncnc(NCc4cc(C)cs4)c3c2)c1 | 1000 | –
9 | c1cncc(CNc2ncnc3ccc(-c4ccc5c(c4)OCO5)cc23)c1 | 100 | –
10 | Fc1cccc(CNc2ncnc3ccc(-c4ccc5c(c4)OCO5)cc23)c1 | 126 | –
11 | COc1cccc(-c2ccc3ncnc(NCc4cccnc4)c3c2)c1 | 3550 | –
12 | c1nc(NCc2ccoc2)c2cc(-c3ccc4c(c3)OCO4)ccc2n1 | 63 | –
13 | Fc1cccc(CNc2ncnc3ccc(-c4ccco4)cc23)c1 | 141 | –
14 | c1csc(CNc2ncnc3ccc(-c4ccc5c(c4)OCO5)cc23)c1 | 63 | Kd [2]: 680 nM; Kd [3]: 230 nM; Kd [4]: 430 nM; Kd [5]: 470 nM; Kd [6]: 27 nM; Kd [7]: 50 nM; Kd [8]: 37 nM
15 | c1cncc(CNc2ncnc3ccc(-c4ccco4)cc23)c1 | 794 | –
16 | COc1cccc(-c2ccc3ncnc(NCc4cccc(F)c4)c3c2)c1 | 708 | –
17 | Cc1noc(C)c1-c1ccc2ncnc(NCc3cccs3)c2c1 | 158 | –
18 | c1cncc(CNc2ncnc3ccc(-c4ccc5c(c4)OCCO5)cc23)c1 | 447 | –
19 | Cc1csc(CNc2ncnc3ccc(-c4ccc5c(c4)OCCO5)cc23)c1 | 501 | –
20 | Cc1cccc(CNc2ncnc3ccc(-c4ccco4)cc23)c1 | 224 | –
21 | c1coc(-c2ccc3ncnc(NCc4ccoc4)c3c2)c1 | 111 | –
22 | COc1cccc(-c2ccc3ncnc(NCc4ccoc4)c3c2)c1 | 1000 | –
23 | Cc1csc(CNc2ncnc3ccc(-c4c(C)noc4C)cc23)c1 | 501 | –
